Converted amounts (≈) assume the structure as drawn.
Each molecule was assayed on NF-kappa B (assay: Evaluation of NF-kappa B inhibition (β-gal reporter, IL-1β-induced)). Settings: Homo sapiens; β-gal reporter with NF-kappa B binding motif in SV40 large T-immortalized HUVEC; induced with 1 ng/ml IL-1β; read-out: NF-kB inhibiting activity IC50.
Type: cell-based
Method: Cells used for the tests were those prepared by stably introducing E. coli β-galactosidase (β-gal) genes driven by SV 40 minimum promoter fused with 4 tandems of the AP-1 binding motif derived from human MMP-1 gene enhancer into human normal umbilical cord vein endothelial cells (HUVEC) immortalized with SV 40 large T antigen. The cells were subcultured in RPMI medium containing 10% of FBS, and were seeded on a 96-well plate in a concentration of 1×10^4/well on a day before the start of the experiments. A compound of the present invention was dissolved in DMSO to obtain a solution of a proper concentration, which was added into the 96-well plate so that the final DMSO concentration would be not higher than 1%. 30 minutes after the addition of the compound, phorbol-12-myristate-13-acetate (PMA) was added to each well so as to obtain the final concentration of 50 ng/ml. β-gal activity was determined 16 hours after with a chemiluminescent substrate (Galacton-Light-Plus: Boehringer Mannheim) according to a protocol attached to the reagent. A Luminescence detector (ATTO) was used for the determination.
The tests were carried out in the same manner as that of Example 56. Concretely, the AP-1 binding motif of the reporter genes in Example 56 was replaced with the NF-kappa B binding motif derived from immunoglobulin kappa light chain enhancer, and NF-kappa B transcriptional activity was induced with 1 ng/ml of IL-1β in place of PMA.
Work on `CC1(C)CC1C(=O)Nc1ccc(C(=O)c2ccc(NC(=O)C3CC3(C)C)cc2)cc1` (centres unmarked) [Compound 1] yielded an IC50 greater than 5 µg/mL. With `CC1(C)CC1C(=O)Nc1ccc(Sc2ccc(NC(=O)C3CC3(C)C)cc2)cc1` (centres unmarked) [Compound 2] the IC50 was 0.1 µg/mL (≈ 0.245 µM). `CC1(C)CC1C(=O)Nc1ccc(Nc2ccc(NC(=O)C3CC3(C)C)cc2)cc1` (centres unmarked) [Compound 3] showed an IC50 of 1 µg/mL (≈ 2.55 µM). For `CC1(C)CC1C(=O)Nc1ccc(Oc2ccc(NC(=O)C3CC3(C)C)cc2)cc1` (centres unmarked) [Compound 4], the IC50 was 1.1 µg/mL (≈ 2.8 µM). With `CC1(C)CC1C(=O)Nc1ccc(S(=O)(=O)c2ccc(NC(=O)C3CC3(C)C)cc2)cc1` (centres unmarked) [Compound 5] the IC50 was greater than 5 µg/mL. Work on `CC1(C)CC1C(=O)Nc1ccc(CCc2ccc(NC(=O)C3CC3(C)C)cc2)cc1` (centres unmarked) [Compound 6] yielded an IC50 of 0.37 µg/mL (≈ 0.915 µM). Work on `CC1(C)CC1C(=O)Nc1ccc(Cc2cccc(NC(=O)C3CC3(C)C)c2)cc1` (centres unmarked) [Compound 7] yielded an IC50 of 0.37 µg/mL (≈ 0.947 µM). `CC1(C)CC1C(=O)Nc1ccc(C(=NO)c2ccc(NC(=O)C3CC3(C)C)cc2)cc1` (centres unmarked) [Compound 8] was tested, and the IC50 was 5 µg/mL (≈ 11.9 µM). For `CC1(C)CC1C(=O)Nc1ccc(C(N)c2ccc(NC(=O)C3CC3(C)C)cc2)cc1` (centres unmarked) [Compound 9], the IC50 was 2.5 µg/mL (≈ 6.16 µM). `CC(=O)NC(c1ccc(NC(=O)C2CC2(C)C)cc1)c1ccc(NC(=O)C2CC2(C)C)cc1` (centres unmarked) [Compound 10] was tested, and the IC50 was greater than 5 µg/mL. In the case of `CC1(C)CC1C(=O)Nc1ccc(C(O)c2ccc(NC(=O)C3CC3(C)C)cc2)cc1` (centres unmarked) [Compound 11], the IC50 is reported as 0.12 µg/mL (≈ 0.295 µM). For `COC(c1ccc(NC(=O)C2CC2(C)C)cc1)c1ccc(NC(=O)C2CC2(C)C)cc1` (centres unmarked) [Compound 12], the IC50 was greater than 5 µg/mL. `CC1(C)CC1C(=O)Nc1ccc(C(CN=[N+]=[N-])c2ccc(NC(=O)C3CC3(C)C)cc2)cc1` (centres unmarked) [Compound 17] showed an IC50 of 2.5 µg/mL (≈ 5.61 µM). Molecule `CC1(C)CC1C(=O)Nc1ccc(C(CN)c2ccc(NC(=O)C3CC3(C)C)cc2)cc1` (centres unmarked) [Compound 18] has an IC50 of 3 µg/mL (≈ 7.15 µM). In the case of `CC1(C)CC1C(=O)Nc1ccc(C(CC#N)c2ccc(NC(=O)C3CC3(C)C)cc2)cc1` (centres unmarked) [Compound 19], the IC50 is reported as 1.2 µg/mL (≈ 2.79 µM). `CC1(C)CC1C(=O)Nc1ccc(C(CC(=O)O)c2ccc(NC(=O)C3CC3(C)C)cc2)cc1` (centres unmarked) [Compound 20] was tested, and the IC50 was 3 µg/mL (≈ 6.69 µM). Molecule `CC1(C)CC1C(=O)Nc1ccc(Cc2ccc(NC(=O)C3CC3(Cl)Cl)cc2)cc1` (centres unmarked) [Compound 23] has an IC50 of 0.1 µg/mL (≈ 0.232 µM). Molecule `COc1ccc(CC(=O)Nc2ccc(Cc3ccc(NC(=O)C4CC4(C)C)cc3)cc2)cc1` (centres unmarked) [Compound 24] has an IC50 of 0.1 µg/mL (≈ 0.226 µM). `CN(C)c1ccc(CC(=O)Nc2ccc(Cc3ccc(NC(=O)C4CC4(C)C)cc3)cc2)cc1` (centres unmarked) [Compound 25] gave an IC50 of 0.03 µg/mL (≈ 0.0658 µM). Molecule `COc1ccc(CCC(=O)Nc2ccc(Cc3ccc(NC(=O)C4CC4(C)C)cc3)cc2)cc1` (centres unmarked) [Compound 26] has an IC50 of 0.1 µg/mL (≈ 0.219 µM). Molecule `COc1ccc(CCNc2ccc(Cc3ccc(NC(=O)C4CC4(C)C)cc3)cc2)cc1` (centres unmarked) [Compound 27] has an IC50 of 0.1 µg/mL (≈ 0.233 µM). In the case of `COc1ccc(CCCNc2ccc(Cc3ccc(NC(=O)C4CC4(C)C)cc3)cc2)cc1` (centres unmarked) [Compound 28], the IC50 is reported as 0.1 µg/mL (≈ 0.226 µM). Work on `CC1(C)C[C@@H]1C(=O)Nc1ccc(C(O)c2ccc(NC(=O)[C@@H]3CC3(C)C)cc2)cc1` (some centres unmarked) [Compound 34] yielded an IC50 of 0.06 µg/mL (≈ 0.148 µM). Molecule `CC1(C)C[C@H]1C(=O)Nc1ccc(C(O)c2ccc(NC(=O)[C@@H]3CC3(C)C)cc2)cc1` [Compound 35] has an IC50 greater than 5 µg/mL. `Cc1cc(Cc2ccc(NC(=O)C3CC3(C)C)c(C)c2)ccc1NC(=O)C1CC1(C)C` (centres unmarked) [Compound 38] gave an IC50 of 0.5 µg/mL (≈ 1.19 µM). For `CC1(C)CC1C(=O)Nc1ccc(Cc2ccc(N3C(=O)C4C5C=CC(C5)C4C3=O)cc2)cc1` (centres unmarked) [Compound 40], the IC50 was 1 µg/mL (≈ 2.27 µM). `CC1(C)CC1C(=O)Nc1ccc(Cc2ccc(NC(=O)C3CCCN3)cc2)cc1` (centres unmarked) [Compound 43] gave an IC50 of 0.1 µg/mL (≈ 0.255 µM). In the case of `CC1(C)CC1C(=O)Nc1ccc(C(O)c2ccc(NC(=O)Cc3ccc(Cl)cc3)cc2)cc1` (centres unmarked) [Compound 44], the IC50 is reported as 1.5 µg/mL (≈ 3.24 µM). For `COc1ccc(CC(=O)Nc2ccc(C(O)c3ccc(NC(=O)C4CC4(C)C)cc3)cc2)cc1` (centres unmarked) [Compound 45], the IC50 was 0.9 µg/mL (≈ 1.96 µM). For `CC1(C)CC1C(=O)Nc1ccc(COc2ccc(NC(=O)C3CC3(C)C)cc2)cc1` (centres unmarked) [Compound 51], the IC50 was 1 µg/mL (≈ 2.46 µM). Molecule `CC1(C)CC1C(=O)Nc1ccc(CSc2ccc(NC(=O)C3CC3(C)C)cc2)cc1` (centres unmarked) [Compound 52] has an IC50 of 0.2 µg/mL (≈ 0.473 µM). `COc1ccc(CCCC(=O)Nc2ccc(Cc3ccc(NC(=O)C4CC4(C)C)cc3)cc2)cc1` (centres unmarked) [Compound 55] gave an IC50 of 0.1 µg/mL (≈ 0.212 µM).

— US7459585B2, “Benzene derivatives and pharmaceutical use thereof” (Ajinomoto Co., Inc., priority 1998, dated 2008)
